In patent EP0514275A1, “Thiopyranopyrrole derivatives, their preparation and pharmaceutical compositions containing them” (RHONE-POULENC RORER S.A., priority 1991, dated 1992):

Columns and labels:
[1] = system: substance P; assay: Antagonism of substance P-induced hypotension (technique of C.A. Maggi et al.); format: in vivo; conditions: rat; 1 mg/kg i.v./mn for 5 mn; hypotension induced by i.v. injection of 250 mg/kg of substance P
Procedure: L'injection de substance P chez l'animal provoque une hypotension. Les produits étudiés dans la technique de C.A. Maggi et coll., J. Auton. Pharmac., 7, 11-32 (1987) manifestent un effet antagoniste chez le rat vis-à-vis de cette hypotension. Notamment les produits administrés à la dose de 1 mg/kg i.v./mn, pendant 5 mn, provoquent un antagonisme de l'hypotension induite par une injection i.v. de […] de substance P.

[2] = Analgesic activity (technique of Siegmund E. et al.); format: in vivo; conditions: po, read-out: DE50 mg/kg p.o.
Excerpt: II a notamment été mis en évidence, par l'étude de plusieurs produits que les nouveaux dérivés de thiopyranopyrrole manifestent une activité analgésique dans la technique de Siegmund E. et coll., Proc. Soc. Exp. Biol. Med., 95, 729 (1957).

[3] = system: septide (agoniste de la substance P); assay: Inhibition of septide-induced increase in capillary permeability (technique of A. Saria et al. adapted to the mouse); format: in vivo, souris; conditions: sc, capillary permeability increase caused by septide, read-out: DE50 mg/kg s.c.
Excerpt: L'étude de plusieurs dérivés de thiopyranopyrrole de formule générale (I) dans la technique de A. Saria et coll., Arch. Pharmacol.,324, 212-218 (1983) adaptée à la souris a permis de mettre en évidence un effet inhibiteur de l'augmentation de la perméabilité capillaire entraîné par le septide (agoniste de la substance P, ce qui témoigne d'une activité anti-inflammatoire : […]

SMILES | % d'inhibition de l'hypotension [1] | ED50 [2] | ED50 [3]
COc1ccccc1[C@H](C)C(=O)N1C[C@@H]2[C@H](C1)[S@+]([O-])CCC2(c1ccccc1)c1ccccc1 (single isomer, unassigned) [Exemple 10, [(-)-(méthoxy-2 phényl)-2 propionyl-(S) ] -6 diphényl-4,4 oxyde-1 erhydrothiopyrano[2,3-c]pyrrole-(1R*, 4aR*, 7aR*)] | 100% | 1.7 mg/kg | < 0.1 mg/kg
CN(C)CCCOc1ccccc1CC(=O)N1C[C@@H]2[C@H](C1)[S@+]([O-])CCC2(c1ccccc1)c1ccccc1 (racemic) [Exemple 7, {[(diméthylamino-3 propoxy-2)phényl]acétyl}-6 diphényl-4,4 oxyde-1 perhydrothiopyrano [2,3-c]pyrrole-(1RS,4aRS,7aRS)] |  | 3 mg/kg | 
CN(C)CCCOc1ccccc1CC(=O)N1C[C@@H]2[C@H](C1)[S@+]([O-])CCC2(c1ccccc1)c1ccccc1 (single isomer, unassigned) [Exemple 8, (-)-{[(diméthylamino-3 propoxy-2)phényl]-2 acétyl}-6 diphényl-4,4 oxyde-1 perhydrothiopyrano [2,3-c]pyrrole-(1R*,4aR*,7aR*)] | 100% |  | 0.05 mg/kg
